The source of these data is paper PMC3994669 (Cancer cell, 2014).

In data set [1] the test system is Myc1 mouse G3 MB neurospheres. Description: Dose-response proliferation assay. In kind it is cell-based. The following applies: for efficacy against Myc1: 72 hr treatment; for pEC50: Mus musculus, 72 h, read-out: EC50 Myc1.
For data set [2], the system named is Trp53-null neurospheres. Description: Dose-response proliferation assay on control Trp53-null neurospheres. In kind it is cell-based, mouse. The following applies: for efficacy against Trp53-null: 72 hr treatment; for pEC50: Mus musculus, 72 h, read-out: EC50 Trp53-null.
The test system of data set [3] is H3K27me3. Briefly: H3K27me3 immunoblotting of Myc1 cell lysates. In kind it is cell-based, mouse. To be noted: Myc1, 72 hr; 0.5 μM decitabine, 40 nM pemetrexed. (In western blotting, separated proteins are transferred to a membrane and probed.)
Data set [4] has as its system four additional mouse G3 MB lines. Description: Dose-response on four additional mouse G3 MB lines. The following applies: four independently derived mouse G3 MB lines. It is filed as cell-based.
Data set [5] relates to Myc1 neurospheres. Description: In vitro wash-out experiments on Myc1. The following applies: Mus musculus. In kind it is cell-based.
The subject of data set [6] is SHH MB-derived line. Description: Dose-response on SHH MB-derived line. In kind it is cell-based, mouse.
Data set [7] deals with TB-12-5950 G3 MB PDX neurospheres. Briefly: Cell viability of G3 MB PDX TB-12-5950 neurospheres. To be noted: Homo sapiens, 72 h, read-out: EC50 TB-12-5950. It is filed as cell-based.
Data set [8] deals with OA-2012-1 G3 MB PDX neurospheres. Description: Cell viability of G3 MB PDX OA-2012-1 neurospheres. In kind it is cell-based. To be noted: Homo sapiens, 72 h, read-out: EC50 OA-2012-1.
Data set [9] relates to human neural stem cells H9. Description: Cell viability of human neural stem cells H9. In kind it is cell-based. The following applies: H9, 72 h, read-out: EC50 H9 cells.
Data set [10] is classed as in vivo. To be noted: murine plasma, single IV injection pemetrexed 200 mg/kg, gemcitabine 60 mg/kg.
Data set [11] deals with Myc1 mouse G3 MB. Briefly: Survival of mice with cortical Myc1 G3 MB implants. It is filed as in vivo.
For data set [12], the system named is mouse G3 MB tumor cells. Briefly: Cell death. The following applies: for cell death by Annexin V staining: tumor cells in vitro. In kind it is cell-based.
For data set [13] the following is noted: mouse, in vivo.
The test system of data set [14] is Myc2 mouse G3 MB. Briefly: Survival of mice with Myc2 G3 MB implants. The following applies: treatment at days 4 and 11; vehicle 11 days.
Where [15] appears, read: read-out: EC50 wash-out, 1 hr drug exposure, read 72 hr after.
The mark [16] stands for this setting: read-out: EC50 wash-out, 10 hr drug exposure, read 72 hr after.
Setting [17] is: read-out: EC50 wash-out, 24 hr drug exposure, read 72 hr after.

Each structure is given as a SMILES string. pEC50: −log10 of the molar value. Where two headings read alike, the source gives them in different places.

With `Nc1ncn([C@H]2C[C@H](O)[C@@H](CO)O2)c(=O)n1` [Decitabine], in data set [1], the “efficacy against Myc1” value is listed as 100%. The pEC50 in data set [1] was 5.89; in [2], 7.49; in [5] (setting [15]), ~5.62; in data set [5] (setting [16]), ~6.04; in data set [5] (setting [17]) it was ~6.30. The “efficacy against Trp53-null” value in data set [2] is given as ≤ 35%. Besides, the H3K27me3 levels entry in data set [3] is “significantly decreased”. The “potency and efficacy compared to Myc1” value in data set [4] is “comparable potency and efficacy”.

Turning to `Nc1ccn([C@@H]2O[C@H](CO)[C@@H](O)C2(F)F)c(=O)n1` [Gemcitabine], the “efficacy against Myc1” value in data set [1] is reported as 100%. The pEC50 in [1] is 8.68; in [2], 9.49; in data set [5] (setting [15]), 7.36; in [5] (setting [16]) it was 7.89; in [5] (setting [17]), 8.42; in data set [7], 8.29. The pEC50 in data set [8] was 7.96; in data set [9] it was 8.82. In addition, the “efficacy against Trp53-null” value in data set [2] is listed as ≤ 63%. The “potency and efficacy compared to Myc1” value in data set [4] is “comparable potency and efficacy”. The “fold less sensitive compared to Myc1” value in data set [6] was “greater than 5 fold”. Moreover, the “clearance relative to previously published reports” value in data set [10] is listed as “around 2 fold”. In addition, the “increase in median survival” value in [11] (two doses of gemcitabine 60 mg/kg at days 2 and 9, vs vehicle) was 11 days. Also, the “histone 2AX (H2AX) foci” value in [12] (1 hr treatment at 5 nM) is given as “induced histone 2AX (H2AX) foci”. In addition, the “cell death by Annexin V staining” value in data set [12] is “induced cell death”. In addition, the tolerability entry in data set [13] is given as “well tolerated”. For the same compound, the median survival in data set [14] turned out to be 26 days.

Regarding `Nc1nc2[nH]cc(CCc3ccc(C(=O)N[C@@H](CCC(=O)O)C(=O)O)cc3)c2c(=O)[nH]1` [Pemetrexed], the negative-log EC50 (pEC50) in data set [1] was 7.46; in [2] it was 4.82; in [5] (setting [15]), 5.92; in [5] (setting [16]), 6.30; in data set [5] (setting [17]), 6.74; in data set [7], 6.80. The pEC50 in [8] was 7.00; in data set [9] it was 6.54. In [3], the H3K27me3 levels entry is recorded as “no effect”. Also, in data set [4], the “potency and efficacy compared to Myc1” value is “comparable potency and efficacy”. In addition, the “sensitivity compared to Myc1” value in data set [6] is “as sensitive to pemetrexed as Myc1”. For the same compound, in data set [10], the “clearance relative to previously published reports” value is “around 2 fold”. The “increase in median survival” value in data set [11] (one dose of pemetrexed 200 mg/kg at day 3, vs vehicle) was determined as 3 days; in data set [11] (two doses of pemetrexed 200 mg/kg at days 3 and 10, vs vehicle), 7 days. Moreover, the “cell death by Annexin V staining” value in data set [12] is recorded as “induced cell death”. In addition, the tolerability result in [13] is “well tolerated”. Moreover, the median survival in data set [14] worked out at 28 days.

Broadly, the pEC50 is −log10 of the EC50, conventionally taken in molar units.
